According to US20250288624A1, “LONG-TERM STABILIZATION, FORMULATION AND TABLETING OF LIVE MICROBIAL CELLS” (priority 2022, published 2025):

Experiments:
[1] = system: E. meliloti; test: Heat shock screen of material library at 50° C. for 24 hours (Viability Score); type: cell-based, Ensifer meliloti
Protocol: FIG. 18. E. meliloti stabilizers against 24 hours at 50° C. Extended data of FIG. 8. E. meliloti was mixed with the material library at the 1×concentration, freeze dried, and exposed to 50° C. for 24 hours. The viability score was characterized as in FIG. 8, and the data is ordered by the viability score of the comparison values when stored at 23° C.
E. meliloti is currently used as a seed inoculant prior to planting, however, there remains a need for improved stability of the microbial product present during formulation, storage, and seed inoculation, particularly when it comes to tolerance to elevated temperatures above 40° C.^28,29. […] Functional symbiosis was measured as percent of seedlings that successfully formed nodules. […]
(§1) The viability of the stored microbial-material combinations was determined by rehydrating in water, making 10-fold serial dilutions in PBS, plating onto the appropriate solid medium and quantifying the resulting colonies. […]
(§2) To assign a Viability Score, using FIJI (imageJ), the 16-bit tiff plate images were programmatically separated into individual spot images, each spot was segmented, and several image attributes were measured (raw particle count, mean background value, mean segmented region value, segmented region area). […]

[2] = system: Medicago truncatula A17; test: Plant nodulation assay with stabilized E. meliloti; type: in vivo; settings: E. meliloti formulated in the material, 50° C. shock for 24 hours, rehydrated, applied to seedlings
Protocol: E. meliloti cultures were prepared as described above (see “High throughput pipeline for microbial material stabilizers”) and freeze-dried with the specified stabilizers following the 1-well plate method described in “Validation of two-material combinations”. The bagged, stabilized powders were exposed to 50° C. for 24 hours in a static incubator and then kept in the dark at 4° C. until used.
Nodulation of Medicago truncatula A17 was assayed according to a protocol from Sadowsky et al. modified to growth in pouches^20-22. Specifically, M. truncatula A17 seeds (Noble Research Institute) were scarified by submerging in concentrated sulfuric acid for 8-9 minutes, washed 8× with sterile water, sterilized by submerging in 8.25% sodium hypochlorite for 90 seconds, washed 8× with sterile water, allowed to imbibe in sterile water for ˜1 hour, placed on 1% agar plates, sealed with parafilm and foil, vernalized at 4° C. in the dark for 5 days and germinated at 23° C. in the dark for 20 hours. […]
The pouches were left undisturbed for 6 days, watered with 5 mL of 1/2×BNM as necessary and then inspected for nodules every other day. On day 12, the number of nodulated seedlings in each pouch was counted. The percent nodulated seedlings was calculated by dividing the number of nodulated seedlings by the total number of seedlings in the pouch.

[3] = system: E. coli Nissle 1917; test: Validation of two-material combinations at 37° C.; type: cell-based, Escherichia coli; settings: in combination with melibiose, larger format
Protocol: E. coli Nissle 1917 was prepared as described above (see “Vial-based viability validation”) with a few modifications: the flask culture was 2 L and incubated for 17-18 hours and the final cell suspension in PBS was set to an OD600 of 10-12.
To freeze-dry, the cell suspension (12.5 mL) was mixed with the target material combination (37.5 mL), poured into rectangular 1-well plates, and placed into a tray freeze dryer with shelfs pre-cooled to −40° C. and on custom 0.25-inch aluminum pedestals to ensure heat transfer to the plates. Samples were dried as described above (see “High throughput pipeline”). […]
The viability of the stored samples was assessed by hydrating the samples with 1 mL PBS, making 10-fold serial dilutions, spotting ˜1.5 uL of each dilution in triplicate onto LB agar in 1-well rectangular plates using a pin replicator (V&P Scientific, VP 407A), incubating at 37° C., and counting colonies on the strongest dilution that gives >1 colony per spot. Total CFU counts per sample were calculated by first dividing spot counts by the spotted volume and multiplying by the dilution factor and total rehydration volume, and then averaging across the three spotting replicates. Total CFU counts per mass were calculated by dividing the CFU counts per sample by the mass of the stored sample. Three independently stored replicate samples were analyzed as described. […]

[4] = system: Escherichia coli Nissle 1917, Ensifer meliloti, Saccharomyces boulardii, Lactobacillus plantarum; test: High throughput pipeline for microbial material stabilizers (Viability Score after freeze-drying); type: cell-based; settings: for viability score: after freeze-drying and 24 hours at room temperature, across the 4 microorganisms, score 0 to 1
Protocol: It was hypothesized that a synthetic extremophile that could survive in the dry state could then be enhanced to survive additional environmental insults using material formulation techniques applied to the dry powder (e.g., coating)^9. Therefore, a library was screened, composed primarily of materials generally recognized as safe (GRAS) by the Food and Drug Administration (FDA) for their ability to protect microbes through freeze-drying and survival at room temperature for 24 hours (Table 2). This materials library was applied to 4 microorganisms (Escherichia coli Nissle 1917, Ensifer meliloti, Saccharomyces boulardii, Lactobacillus plantarum) that span a wide range of phylogenetic backgrounds, are technologically important and genetically tractable. Each microorganism was mixed with each of the 260 materials at two different concentrations to give 2,080 microbial-material formulations.
Microbial strains were precultured overnight in 5 mL liquid medium at the appropriate conditions (see above). The overnight culture was diluted 1:1000 fold into three replicates of 125 mL of fresh liquid medium in a flask and cultured for 24 hours. The optical density (OD600) of each replicate culture was recorded (typically 2-2.5 for E. coli Nissle 1917, E. meliloti, L. plantarum and 5-6 for S. boulardii) and the cells were pelleted at 3220 rcf for 15 minutes. The cell pellets were then resuspended in PBS (E. meliloti, L. plantarum, S. boulardii) or spent medium (E. coli Nissle 1917) to a final OD600 of 2.25 and used immediately.
The material library was prepared by mixing each material with ultrapure water to the specified concentration (1×, 5×) in Table 2. The material solutions were arrayed in sealed deep well plates and kept at −20° C. until needed. On the day of use, the material plates were thawed at room temperature, vortexed well and centrifuged briefly.
To freeze-dry, each replicate microbial cell suspension (25 uL) was mixed with the arrayed materials (75 uL) in batch into flat-bottom 96-well plates using a liquid handling robot (Tecan, EVO 150). […]
as §1, §2

OC[C@H]1O[C@H](O[C@H]2[C@H](O)[C@@H](O)C(O)O[C@@H]2CO)[C@H](O)[C@@H](O)[C@@H]1O (mixture of isomers) [maltose]
material class in heat shock screen (synthetic thermotolerance) [1]: optimal | nodulation of M. truncatula seedlings by stabilized E. meliloti [2]: successfully nodulate

Cn1c(=O)c2c(ncn2C)n(C)c1=O [caffeine]
stability of two-material formulation at extended storage times [3]: robust

OC[C@H]1O[C@H](OCC2O[C@@H](O)[C@H](O)[C@@H](O)[C@@H]2O)[C@H](O)[C@@H](O)[C@H]1O (stereo partly drawn) [melibiose]
performance in stabilizer screen ([4]; E. coli Nissle 1917): best performing material

[Na+].[OH-] [sodium hydroxide]
viability score [4]: 0

O=S([O-])S(=O)(=O)[O-].[Na+].[Na+] [sodium metabisulfite]
viability score [4]: 0

OC[C@H]1O[C@@](CO)(O[C@H]2O[C@H](CO)[C@@H](O)[C@H](O)[C@H]2O)[C@@H](O)[C@@H]1O [sucrose]
material class in heat shock screen (synthetic thermotolerance) [1]: optimal | nodulation of M. truncatula seedlings by stabilized E. meliloti [2]: successfully nodulate

OC[C@H]1O[C@H](O[C@H]2O[C@H](CO)[C@@H](O)[C@H](O)[C@H]2O)[C@H](O)[C@@H](O)[C@@H]1O [trehalose]
viability score [4]: measurable viability
